Source: US20020137929A1, “1 - (3-heterocyclylphenyl) isothiourea, -isourea, -guanidine and -amidine herbicidal agents” (Intellectual Property Department, BASF Aktiengesellschaft, priority 1998, published 2002)

Legend:
[1] = tested on: CHEAL (Lambsquarters, Common); test: Preemergence herbicidal evaluation; type: in vivo, Chenopodium album; details: rated 4-5 weeks after treatment, rating scale 0-9
How it was run: (§1)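 Sown cups got a single aqueous acetone spray of test compound (roughly 0.0156–0.500 kg/ha) before seedlings emerged. Evaluation, 4–5 weeks on, used a 0–9 visual scale covering plant stand, vigor, size, malformation, chlorosis and general appearance compared with controls.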

ABUTH (Velvetleaf) = test: Preemergence herbicidal evaluation; type: in vivo, Abutilon theophrasti; details: rated 4-5 weeks after treatment, rating scale 0-9
How it was run: as §1

MOOVA (Monochoria) = test: Preemergence weed control under flooded paddy conditions; type: in vivo, Monochoria vaginalis; details: rated 3-4 weeks after treatment
How it was run: (§2)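 Seeds or propagules sown in top 0.5 cm of silt loam soil, flooded 1.5 to 3 cm above surface throughout. Compound in 50/50 v/v aqueous/acetone pipetted into flood water at about 0.0313 to 0.500 kg/ha. Visual 0-9 rating versus control after three to four weeks in greenhouse.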

[2] = tested on: CHEAL (Lambsquarters, Common); test: Postemergence herbicidal evaluation; type: in vivo, Chenopodium album; details: postemergence
How it was run: (§3)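 Visual 0-9 injury score (stand, vigor, malformation, size, chlorosis, appearance vs untreated) taken four to five weeks post-spray, averaged across repeat tests. Test plants about two weeks old; foliar spray of acetone/water (1:1) with 0.5% surfactant delivering ~0.0156-0.500 kg active/ha.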

ORYSAT (Rice, Tebonnet) = test: Preemergence herbicidal evaluation; type: in vivo, Oryza sativa, (L.) Tebonnet; details: rated 4-5 weeks after treatment, rating scale 0-9
How it was run: as §1

ECHCG (Barnyardgrass) = test: Postemergence herbicidal evaluation; type: in vivo, Echinochloa crus-galli; details: postemergence
How it was run: as §3

[3] = tested on: SAGPY (Arrowhead (Pygmaea)); test: Preemergence weed control under flooded paddy conditions; type: in vivo, Sagittaria pygmaea; details: rated 3-4 weeks after treatment
How it was run: as §2

AMBEL (Ragweed, Common) [4] = test: Preemergence herbicidal evaluation; type: in vivo, Ambrosia artemisifolia; details: rated 4-5 weeks after treatment, rating scale 0-9
How it was run: as §1

[5] = tested on: TRZAWR (Wheat, Winter, cv Riband); test: Postemergence herbicidal evaluation; type: in vivo, Triticum aestivum; details: postemergence
How it was run: as §3

CASOB (Sicklepod) [6] = test: Postemergence herbicidal evaluation; type: in vivo, Cassia obtusifolia; details: postemergence
How it was run: as §3

[7] = tested on: GLXMAW (Soybean, Williams); test: Preemergence herbicidal evaluation; type: in vivo, Glycine max, (L.) Merr. cv Williams; details: rated 4-5 weeks after treatment, rating scale 0-9
How it was run: as §1

[8] = tested on: IPOHE (Morningglory, Ivyleaf); test: Preemergence herbicidal evaluation; type: in vivo, Ipomoea hederacea; details: rated 4-5 weeks after treatment, rating scale 0-9
How it was run: as §1

[9] = tested on: IPOHE (Morningglory, Ivyleaf); test: Postemergence herbicidal evaluation; type: in vivo, Ipomoea hederacea; details: postemergence
How it was run: as §3

AMBEL (Ragweed, Common) [10] = test: Postemergence herbicidal evaluation; type: in vivo, Ambrosia artemisifolia; details: postemergence
How it was run: as §3

[11] = tested on: GLXMAW (Soybean, Williams); test: Postemergence herbicidal evaluation; type: in vivo, Glycine max, (L.) Merr. cv Williams; details: postemergence
How it was run: as §3

CASOB (Sicklepod) [12] = test: Preemergence herbicidal evaluation; type: in vivo, Cassia obtusifolia; details: rated 4-5 weeks after treatment, rating scale 0-9
How it was run: as §1

COc1cccc(CN2C(=O)CSC2=Nc2cc(-n3c(=O)cc(C(F)(F)F)n(C)c3=O)c(F)cc2Cl)c1 [Compound 137, 3-{4-Chloro-2-fluoro-5-{[3-(m-methoxybenzyl)-4-oxo-2-thiazolidinylidene]amino}phenyl}-1-methyl-6-(trifluoromethyl)-2,4(1H,3H)-pyrimidinedione]
Preemergence herbicidal rating CHEAL ([1]; rate 0.0625 kg/ha): 9.0
Preemergence herbicidal rating CHEAL ([1]; rate 0.1250 kg/ha): 9.0
Preemergence herbicidal rating CHEAL ([1]; rate 0.2500 kg/ha): 9.0
Preemergence herbicidal rating ABUTH (ABUTH (Velvetleaf); rate 0.0625 kg/ha): 0.0
Preemergence herbicidal rating ABUTH (ABUTH (Velvetleaf); rate 0.1250 kg/ha): 0.0
Preemergence herbicidal rating ABUTH (ABUTH (Velvetleaf); rate 0.2500 kg/ha): 9.0
herbicidal effect rating, MOOVA (MOOVA (Monochoria); 0.0313 kg/ha): 4.0
herbicidal effect rating, MOOVA (MOOVA (Monochoria); 0.0625 kg/ha): 5.0
herbicidal effect rating, MOOVA (MOOVA (Monochoria); 0.1250 kg/ha): 5.0
herbicidal effect rating, MOOVA (MOOVA (Monochoria); 0.2500 kg/ha): 8.0
herbicidal rating CHEAL ([2]; rate 0.0156 kg/ha): 6.0
herbicidal rating CHEAL ([2]; rate 0.0313 kg/ha): 9.0
herbicidal rating CHEAL ([2]; rate 0.0625 kg/ha): 9.0
Preemergence herbicidal rating ORYSAT (ORYSAT (Rice, Tebonnet); rate 0.0625 kg/ha): 0.0
Preemergence herbicidal rating ORYSAT (ORYSAT (Rice, Tebonnet); rate 0.1250 kg/ha): 0.0
Preemergence herbicidal rating ORYSAT (ORYSAT (Rice, Tebonnet); rate 0.2500 kg/ha): 0.0
herbicidal rating ECHCG (ECHCG (Barnyardgrass); rate 0.0156 kg/ha): 2.0
herbicidal rating ECHCG (ECHCG (Barnyardgrass); rate 0.0313 kg/ha): 1.0
herbicidal rating ECHCG (ECHCG (Barnyardgrass); rate 0.0625 kg/ha): 3.0
herbicidal effect rating, SAGPY ([3]; 0.0313 kg/ha): 0.0
herbicidal effect rating, SAGPY ([3]; 0.0625 kg/ha): 0.0
herbicidal effect rating, SAGPY ([3]; 0.1250 kg/ha): 0.0
herbicidal effect rating, SAGPY ([3]; 0.2500 kg/ha): 3.0
Preemergence herbicidal rating AMBEL (AMBEL (Ragweed, Common) [4]; rate 0.0625 kg/ha): 0.0
Preemergence herbicidal rating AMBEL (AMBEL (Ragweed, Common) [4]; rate 0.1250 kg/ha): 0.0
Preemergence herbicidal rating AMBEL (AMBEL (Ragweed, Common) [4]; rate 0.2500 kg/ha): 7.0
herbicidal rating TRZAWR ([5]; rate 0.0156 kg/ha): 3.5
herbicidal rating TRZAWR ([5]; rate 0.0313 kg/ha): 3.0
herbicidal rating TRZAWR ([5]; rate 0.0625 kg/ha): 4.5
herbicidal rating CASOB (CASOB (Sicklepod) [6]; rate 0.0156 kg/ha): 1.0
herbicidal rating CASOB (CASOB (Sicklepod) [6]; rate 0.0313 kg/ha): 1.0
herbicidal rating CASOB (CASOB (Sicklepod) [6]; rate 0.0625 kg/ha): 4.0
Preemergence herbicidal rating GLXMAW ([7]; rate 0.0625 kg/ha): 0.0
Preemergence herbicidal rating GLXMAW ([7]; rate 0.1250 kg/ha): 0.0
Preemergence herbicidal rating GLXMAW ([7]; rate 0.2500 kg/ha): 1.0
Preemergence herbicidal rating IPOHE ([8]; rate 0.0625 kg/ha): 0.0
Preemergence herbicidal rating IPOHE ([8]; rate 0.1250 kg/ha): 0.0
Preemergence herbicidal rating IPOHE ([8]; rate 0.2500 kg/ha): 1.0
herbicidal rating IPOHE ([9]; rate 0.0156 kg/ha): 9.0
herbicidal rating IPOHE ([9]; rate 0.0313 kg/ha): 9.0
herbicidal rating IPOHE ([9]; rate 0.0625 kg/ha): 9.0
herbicidal rating AMBEL (AMBEL (Ragweed, Common) [10]; rate 0.0156 kg/ha): 9.0
herbicidal rating AMBEL (AMBEL (Ragweed, Common) [10]; rate 0.0313 kg/ha): 9.0
herbicidal rating AMBEL (AMBEL (Ragweed, Common) [10]; rate 0.0625 kg/ha): 9.0
herbicidal rating GLXMAW ([11]; rate 0.0156 kg/ha): 6.0
herbicidal rating GLXMAW ([11]; rate 0.0313 kg/ha): 5.5
herbicidal rating GLXMAW ([11]; rate 0.0625 kg/ha): 5.5
Preemergence herbicidal rating CASOB (CASOB (Sicklepod) [12]; rate 0.0625 kg/ha): 0.0
Preemergence herbicidal rating CASOB (CASOB (Sicklepod) [12]; rate 0.1250 kg/ha): 0.0
Preemergence herbicidal rating CASOB (CASOB (Sicklepod) [12]; rate 0.2500 kg/ha): 0.0
